From PubChem BioAssay AID1918999 (Molecular Pharmacology Branch, DTP, NCI, 2023)

Tested on: 556581-035-R-J1-PDC complex spheroid growth
Experiment: Anticancer human tumor 556581-035-R-J1-PDC patient-derived ovarian carcinoma cell line growth inhibition [AhR]
Details: for IC50: curve of first compound; for viability, T/C: stronger effect = lower value
Procedure, shortened: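 Spheroids combined tumor cells with HUVEC endothelial cells and human MSCs as stroma. AhR antagonists were paired with standard or investigational drugs, each dosed in half-log steps down from near clinical Cmax, or from 10 microM where Cmax was unknown.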

[1] = second compound 0.1 µM, first compound 0.0316 µM
[2] = second compound 0.1 µM, first compound 0.1 µM
[3] = second compound 0.1 µM, first compound 0.316 µM
[4] = second compound 0.1 µM, first compound 1 µM
[5] = second compound 0.1 µM, first compound 3.16 µM
[6] = second compound 0.1 µM, first compound 10 µM
[7] = second compound 0.316 µM, first compound 0.0316 µM
[8] = second compound 0.316 µM, first compound 0.1 µM
[9] = second compound 0.316 µM, first compound 0.316 µM
[10] = second compound 0.316 µM, first compound 1 µM
[11] = second compound 0.316 µM, first compound 3.16 µM
[12] = second compound 0.316 µM, first compound 10 µM
[13] = second compound 1 µM, first compound 0.0316 µM
[14] = second compound 1 µM, first compound 0.1 µM
[15] = second compound 1 µM, first compound 0.316 µM
[16] = second compound 1 µM, first compound 1 µM
[17] = second compound 1 µM, first compound 3.16 µM
[18] = second compound 1 µM, first compound 10 µM
[19] = second compound 3.16 µM, first compound 0.0316 µM
[20] = second compound 3.16 µM, first compound 0.1 µM
[21] = second compound 3.16 µM, first compound 0.316 µM
[22] = second compound 3.16 µM, first compound 1 µM
[23] = second compound 3.16 µM, first compound 3.16 µM
[24] = second compound 3.16 µM, first compound 10 µM
[25] = second compound 10 µM, first compound 0.0316 µM
[26] = second compound 10 µM, first compound 0.1 µM
[27] = second compound 10 µM, first compound 0.316 µM
[28] = second compound 10 µM, first compound 1 µM
[29] = second compound 10 µM, first compound 3.16 µM
[30] = second compound 10 µM, first compound 10 µM
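Throughout, for viability, T/C: compound exposure lasted 7 days; 100% = DMSO vehicle control growth.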

Row | Structure (SMILES) | IC50 (second compound 0.1 µM) [µM] | IC50 (second compound 0.316 µM) [µM] | IC50 (second compound 1 µM) [µM] | IC50 (second compound 3.16 µM) [µM] | IC50 (second compound 10 µM) [µM] | viability, T/C [1] [%] | viability, T/C [2] [%] | viability, T/C [3] [%] | viability, T/C [4] [%] | viability, T/C [5] [%] | viability, T/C [6] [%] | viability, T/C [7] [%] | viability, T/C [8] [%] | viability, T/C [9] [%] | viability, T/C [13] [%] | viability, T/C [14] [%] | viability, T/C [19] [%] | viability, T/C [20] [%] | viability, T/C [25] [%] | viability, T/C [26] [%] | further results
1 | CC1(C)CCC(CN2CCN(c3ccc(C(=O)NS(=O)(=O)c4ccc(NCC5CCOCC5)c([N+](=O)[O-])c4)c(Oc4cnc5[nH]ccc5c4)c3)CC2)=C(c2ccc(Cl)cc2)C1 + Cc1ccccc1N=Nc1ccc(NC(=O)c2ccnn2C)c(C)c1 | > 10 | > 10 | > 10 | > 10 | > 10 | 97.1 | 108 | 106 | 103 | 106 | 82.4 | 99.3 | 105 | 113 | 102 | 101 | 96.7 | 97.1 | 101 | 97.5 | viability, T/C [10]: 99.6%; viability, T/C [11]: 108%; viability, T/C [12]: 85.9%; viability, T/C [15]: 109%; viability, T/C [16]: 98.3%; viability, T/C [17]: 97.5%; viability, T/C [18]: 78.1%; viability, T/C [21]: 97.7%; viability, T/C [22]: 97.9%; viability, T/C [23]: 103%; viability, T/C [24]: 90.3%; viability, T/C [27]: 97.6%; viability, T/C [28]: 95.6%; viability, T/C [29]: 86.7%; viability, T/C [30]: 77.2%
2 | Cn1ncnc1C1c2n[nH]c(=O)c3cc(F)cc(c23)NC1c1ccc(F)cc1 (stereo not given) + Cc1ccccc1N=Nc1ccc(NC(=O)c2ccnn2C)c(C)c1 | > 0.1 | > 0.1 | > 0.1 | > 0.1 | > 0.1 | 94.9 | 97.4 |  |  |  |  | 104 | 94.3 |  | 97.8 | 105 | 104 | 111 | 93.8 | 92.3 | viability, T/C (second compound 0.1 µM, first compound 0.000316 µM): 102%; viability, T/C (second compound 0.1 µM, first compound 0.001 µM): 112%; viability, T/C (second compound 0.1 µM, first compound 0.00316 µM): 103%; viability, T/C (second compound 0.1 µM, first compound 0.01 µM): 105%; viability, T/C (second compound 0.316 µM, first compound 0.000316 µM): 112%; viability, T/C (second compound 0.316 µM, first compound 0.001 µM): 114%; viability, T/C (second compound 0.316 µM, first compound 0.00316 µM): 113%; viability, T/C (second compound 0.316 µM, first compound 0.01 µM): 103%; viability, T/C (second compound 1 µM, first compound 0.000316 µM): 116%; viability, T/C (second compound 1 µM, first compound 0.001 µM): 99.6%; viability, T/C (second compound 1 µM, first compound 0.00316 µM): 109%; viability, T/C (second compound 1 µM, first compound 0.01 µM): 100%; viability, T/C (second compound 3.16 µM, first compound 0.000316 µM): 110%; viability, T/C (second compound 3.16 µM, first compound 0.001 µM): 101%; viability, T/C (second compound 3.16 µM, first compound 0.00316 µM): 94.6%; viability, T/C (second compound 3.16 µM, first compound 0.01 µM): 96.5%; viability, T/C (second compound 10 µM, first compound 0.000316 µM): 92.2%; viability, T/C (second compound 10 µM, first compound 0.001 µM): 108%; viability, T/C (second compound 10 µM, first compound 0.00316 µM): 89.8%; viability, T/C (second compound 10 µM, first compound 0.01 µM): 98.8%
3 | NS(=O)(=O)OCC1CC(n2ccc3c(NC4CCc5ccccc54)ncnc32)CC1O (stereo not given) + Cc1ccccc1N=Nc1ccc(NC(=O)c2ccnn2C)c(C)c1 | > 10 | > 10 | > 10 | > 10 | > 10 | 101 | 103 | 103 | 108 | 106 | 82.2 | 105 | 104 | 97.2 | 92.9 | 102 | 97.1 | 96.5 | 91.3 | 80 | viability, T/C [10]: 103%; viability, T/C [11]: 93.9%; viability, T/C [12]: 80.2%; viability, T/C [15]: 101%; viability, T/C [16]: 101%; viability, T/C [17]: 95.7%; viability, T/C [18]: 79.7%; viability, T/C [21]: 89.3%; viability, T/C [22]: 89.7%; viability, T/C [23]: 88.8%; viability, T/C [24]: 73.3%; viability, T/C [27]: 89.8%; viability, T/C [28]: 88.2%; viability, T/C [29]: 83.6%; viability, T/C [30]: 69.6%
